Values after ≈ are worked out from the molar mass of the structure shown. Like-named read-outs stand apart in the source and are kept apart here.
How the values were obtained:
Candida albicans = assay: Antifungal susceptibility testing (NCCLS M38-A), MIC/MFC; assay type: cell-based; details: Table 23
Procedure: (§1) Specifically, disclosed compounds were evaluated alongside commercially available microtubulin inhibitors as well as recognized antifungal agents.
(§2) Microorganisms against which these compounds were tested included: Candida albicans, Candida glabrata, Aspergillus fumigatus, Trichophyton rubrum, Trichophyton mentagrophytes, Epidermophyton floccosum. With the exception of Candida glabrata (one isolate), two isolates of each species were tested.
(§3) The minimum lethal concentration (MLC) was determined by plating […] from the MIC concentration and each concentration above the MIC. […] When a MIC was obtained, a minimum fungicidal concentration (MFC) was determined to assess the fungistatic/fungicidal nature of the compound.

Candida glabrata = assay: as above; assay type: cell-based; details: Table 23
Procedure: as §1, §2, §3

[1] = system: MES-SA/Dx5 (Taxol resistant) human uterine sarcoma; assay: Cytotoxicity / growth inhibition in multidrug resistant uterine sarcoma cells; assay type: cell-based
Procedure: 1) Human Uterine Sarcoma Tumor Cell Line Pair: MES-SA (Taxol Sensitive) and MES-SA/Dx5 (Taxol Resistant).
HL-60 and HL-60/MX2 cells were both seeded at 5×10^4 cells/well in 90 μl complete media into 96 well plates on the day of compound addition. […] Ten μl volumes of the 10× serial dilutions were added to the test wells in triplicate and the plates returned to the incubator for 48 hours.
Resazurin dye in medium without cells was used to determine the background, which was subtracted from the data for all experimental wells.
The multidrug resistant MES-SA/Dx5 tumor cell line was derived from the human uterine sarcoma MES-SA tumor cell line and expresses elevated P-Glycoprotein (P-gp), an ATP dependent efflux pump. […] Paclitaxel, a known substrate of the P-gp pump was included as a control.

HT-29 human colon cells = assay: Tumor cytotoxicity / cell growth inhibition assay, resazurin fluorescence, 48 h; assay type: cell-based; details: for EC50: Homo sapiens
HuVEC cells = assay: Microtubule (tubulin) depolymerization, α-tubulin staining; details: 2 μM, thirty minutes exposure
Trichophyton rubrum = assay: Antifungal susceptibility testing (NCCLS M38-A), MIC/MFC; assay type: cell-based; details: for antifungal potency compared with griseofulvin: dermatophyte isolates
Procedure: as §1, §2, §3

[2] = system: Jurkat cells (human T cell leukemia line); assay: DNA fragmentation (DNA laddering) by gel electrophoresis; assay type: cell-based
From the text: A late stage characteristic of apoptosis is internucleosomal DNA cleavage that results in a distinctive ladder pattern that can be visualized by gel electrophoresis.

MCF-7 human breast tumor = assay: MCF-7 Human Breast Tumor Xenograft Model; assay type: in vivo, mice; details: combination with taxotere
Procedure: Animals used were (exceptions are indicated for individual studies): female nude mice (nu/nu) between 5 and 6 weeks of age (˜20 g, Harlan); group size was 9-10 mice per group unless otherwise indicated.
Female nude mice (˜20 g) were implanted s.c. with 21-day release estrogen (0.25 mg) pellets 24 hours prior to the s.c. implantation with MCF-7 tumor fragments (harvested from s.c. tumors in nude mice hosts). The study then proceeded as described for the HT-29 model, using taxotere as the standard chemotherapy agent.
In this model unless otherwise noted for the individual study, the novel compounds were injected via the intraperitoneal route daily on Days 1-5, inclusive (qdx5); taxotere was administered intravenously on Days 1, 3 and 5 (qodx3).
The doses of the compounds were administered on Days 1, 2, 3, 4, and 7; Taxotere was administered on Days 1, 3 and 7.

[3] = system: Trichophyton mentagrophytes; assay: Antifungal susceptibility testing (NCCLS M38-A), MIC/MFC; assay type: cell-based
Procedure: Specifically, disclosed compounds were evaluated alongside commercially available microtubulin inhibitors as well as recognized antifungal agents. […].
as §2
Drug concentrations were 0.03-16 μg/ml for the investigational compounds, 0.015-8 μg/ml for itraconazole and griseofulvin.
as §3, with “compound. […] The compound is scored as fungistatic if the cells are able to resume growth and fungicidal if no regrowth is possible because the compound had killed the organisms.” for “compound.”

[4] = system: MCF7 cells (GFP-alpha-tubulin); assay: Microtubule dynamic instability in living MCF7 cells (time-lapse microscopy); assay type: cell-based, human
[5] = Table 28, 25% of the maximal mitotic block
[6] = Table 29, 50% of the maximal mitotic block

## C[C@@H]1[C@H](O)[C@@H](C)/C=C/C=C/C=C/C=C/C=C/C=C/C=C/[C@H](O[C@@H]2O[C@H](C)[C@@H](O)[C@H](N)[C@@H]2O)C[C@@H]2O[C@](O)(C[C@@H](O)C[C@@H](O)[C@H](O)CC[C@@H](O)C[C@@H](O)CC(=O)O[C@H]1C)C[C@H](O)[C@H]2C(=O)O [amphotericin B, Amphotericin B]
Candida albicans
  MFC C. albicans 10231: 0.5 µg/mL (≈ 0.541 µM)
  MFC C. albicans 90028: 0.5 µg/mL (≈ 0.541 µM)
  MIC C. albicans 10231: 0.5 µg/mL (≈ 0.541 µM)
  MIC C. albicans 90028: 0.5 µg/mL (≈ 0.541 µM)
Candida glabrata
  MFC C. glabrata: 1 µg/mL (≈ 1.08 µM)
  MIC C. glabrata: 1 µg/mL (≈ 1.08 µM)

## COc1cc([C@@H]2c3cc4c(cc3[C@@H](O[C@@H]3O[C@@H]5CO[C@@H](C)O[C@H]5[C@H](O)[C@H]3O)[C@H]3COC(=O)[C@H]23)OCO4)cc(OC)c1O [etoposide, Etoposide]
[1]; versus MES-SA
  reduced susceptibility of MES-SA/DX5 cell line: 60 fold

## CC(C)(C)c1[nH]cnc1/C=c1\[nH]c(=O)/c(=C/c2cccc(OC(F)(F)F)c2)[nH]c1=O [KPU-80, TBu- ΔPLH—m-OCF3]
HT-29 human colon cells
  activity compared with tBu-dehydroPLH: higher activity than tBu-dehydroPLH

## (±)-phenylahistin
Human hepatic P450s
  metabolites detected: at least seven metabolites were detected
  share of major metabolites P1 and P3 in recovered metabolites: more than 60%

## COc1cc2c(c(OC)c1OC)-c1ccc(OC)c(=O)cc1[C@@H](NC(C)=O)CC2 [Colchicine]
HuVEC cells
  microtubule depolymerization in HuVEC cells: induced microtubule depolymerization

## COc1ccc(/C=c2\[nH]c(=O)/c(=C/c3nc[nH]c3C(C)(C)C)[nH]c2=O)c(OC)c1OC [KPU-17, tBu-ΔPLH-2,3,4-TriOMe]
HT-29 human colon cells
  cytotoxic activity against HT-29 cells: also showed activity
Trichophyton rubrum
  antifungal potency compared with griseofulvin: equivalent in potency or in some cases more potent than griseofulvin

## phenylahistin [halimide]
[2]
  DNA laddering, potency compared with KPU-2: much less potent

## CC(C)(C)c1[nH]cnc1/C=C1\NC(=O)[C@H](Cc2ccccc2)NC1=O [t-butyl-phenylahistin]
[1]
  potency in resistant MES-SA/DX5 versus sensitive MES-SA line: only slightly reduced
MCF-7 human breast tumor
  effect on estimated tumor growth with taxotere: significant potentiation of taxotere
Trichophyton rubrum
  antifungal potency compared with griseofulvin: equivalent in potency or in some cases more potent than griseofulvin
HuVEC cells
  microtubule depolymerization in HuVEC cells: induced microtubule depolymerization

## CC(C)(C)c1ocnc1/C=c1\[nH]c(=O)/c(=C/c2ccccc2F)[nH]c1=O [compound 2475, tBu-Oxadelta-PLH-2-F]
HT-29 human colon cells; Table 3.2, HT-29 cells, 48 hours, read-out: EC50 (M) Mean
  EC50: 4.66e-08 M

## COc1cc(/C=c2\[nH]c(=O)/c(=C/c3nc[nH]c3C(C)(C)C)[nH]c2=O)cc(OC)c1 [KPU-16, tBu-ΔPLH-3,5-diOMe]
HT-29 human colon cells
  cytotoxic activity against HT-29 cells: showed high activity

## CC(C)(C)c1[nH]cnc1/C=c1\[nH]c(=O)/c(=C/c2ccccc2)[nH]c1=O [compound 2421]
HT-29 human colon cells; HT-29, read-out: EC50 (M) Mean, Table 3.1, cell line not given, assay as above
  EC50: 2.22e-08 M
HT-29 human colon cells; Table 3.1, cell line not given
  % cytotox Mean: 88%

## C=CC(C)(C)c1[nH]cnc1/C=C1\NC(=O)[C@H](Cc2ccccc2)NC1=O [(−)-Phenylahistin]
Trichophyton rubrum
  potency versus T. rubrum: significantly less potent than the other compounds
[3]
  potency versus sensitive T. mentagrophytes isolate: weaker but more comparable to the others

## COc1cccc2c1C(=O)c1c(O)c3c(c(O)c1C2=O)C[C@@](O)(C(=O)CO)C[C@@H]3O[C@H]1C[C@H](N)[C@H](O)[C@H](C)O1 [doxorubicin, Doxorubicin]
[1]; versus MES-SA
  reduced susceptibility of MES-SA/DX5 cell line: 34 fold

## COc1ccc(/C=C\c2cc(OC)c(OC)c(OC)c2)cc1O [CA4, Combretastatin A4]
[4]; [5]
  % time spent Attenuation: 39.50%
  % time spent Growth: 35.31%
  % time spent Shortening: 25.19%
  Freq. of (min-1) Catastrophe: 1.52 min⁻¹
  Freq. of (min-1) Rescue: 1.90 min⁻¹
  Mean duration (min) Attenuation: 0.45 min
  Mean duration (min) Growth: 0.27 min
  Mean duration (min) Shortening: 0.21 min
  Mean rates (μm/min) Shortening: 40.21 μm/min
[4]; Table 28, concentration effecting 25% of the maximal mitotic block in MCF7 cells
  Mean rates (μm/min) Growth: 10.59 μm/min
[4]; Table 28, dynamicity, 25% of the maximal mitotic block
  Dyn. (μm/min): 13.87 μm/min
[4]; [6]
  % time spent Attenuation: 36.23%
  % time spent Growth: 43.64%
  % time spent Shortening: 20.13%
  Dynamicity (μm/min): 10.91 μm/min
  Freq. of (min-1) Catastrophe: 1.09 min⁻¹
  Freq. of (min-1) Rescue: 2.79 min⁻¹
  Mean duration (min) Attenuation: 0.55 min
  Mean duration (min) Growth: 0.33 min
  Mean duration (min) Shortening: 0.22 min
  Mean rates (μm/min) Shortening: 29.88 μm/min
[4]; Table 29, concentration effecting 50% of the maximal mitotic block in MCF7 cells
  Mean rates (μm/min) Growth: 11.21 μm/min
[4]; concentrations effecting 25% or 50% of maximal mitotic block
  effect on MT dynamic instability: did not have a measurable effect on MT dynamic instability

## COc1cc(/C=c2\[nH]c(=O)/c(=C/c3nc[nH]c3C(C)(C)C)[nH]c2=O)cc(OC)c1OC [KPU-11, tBu-ΔPLH-3,4,5-triOMe]
HT-29 human colon cells
  cytotoxic activity against HT-29 cells: also showed activity
Trichophyton rubrum
  antifungal potency compared with griseofulvin: equivalent in potency or in some cases more potent than griseofulvin

## COc1cc(OC)c(/C=c2\[nH]c(=O)/c(=C/c3nc[nH]c3C(C)(C)C)[nH]c2=O)c(OC)c1 [KPU-45, tBu-ΔPLH-2,4,6-TriOMe]
HT-29 human colon cells
  cytotoxic activity against HT-29 cells: also showed activity

## CC(=O)O[C@H]1C(=O)[C@@]2(C)[C@H]([C@H](OC(=O)c3ccccc3)[C@]3(O)C[C@H](OC(=O)[C@H](O)[C@@H](NC(=O)c4ccccc4)c4ccccc4)C(C)=C1C3(C)C)[C@]1(OC(C)=O)CO[C@@H]1C[C@@H]2O [Paclitaxel]
[1]; versus MES-SA, Example 11
  times less active against resistant MES-SA/Dx5 cells: ~400 times

## Cc1ccsc1/C=c1\[nH]c(=O)/c(=C/c2nc[nH]c2C(C)(C)C)[nH]c1=O [KPU-29, tBu-ΔPLH-3-Me-2-thienyl]
HT-29 human colon cells
  cytotoxic activity against HT-29 cells: exhibited activity

## CC(C)(C)c1[nH]cnc1/C=c1\[nH]c(=O)/c(=C/c2ccccc2)[nH]c1=O [tBu-dehydrophenylahistin, 3-Z-Benzylidene-6-(5″-tert-butyl-1H-imidazol-4″-Z-ylmethylene)-piperazine-2,5-dione]
HT-29 human colon cells; Table 1 data
  cytotoxic activity in comparison with dehydrophenylahistin: ~4 times

## COc1ccc(F)c(/C=c2\[nH]c(=O)/c(=C/c3nc[nH]c3C(C)(C)C)[nH]c2=O)c1 [KPU-81, TBu-ΔPLH-2-F-5-OMe]
HT-29 human colon cells
  activity compared with tBu-dehydroPLH: higher activity than tBu-dehydroPLH

From US8247552B2, “Analogs of dehydrophenylahistins and their therapeutic use” (Nereus Pharmaceuticals, Inc., priority 2002, dated 2012)
